Patent US6852482B1, “Methods and compositions for inhibiting β-secretase” (Elan Pharmaceuticals, Inc., priority 1995, dated 2005)
Like-named read-outs stand apart in the source and are kept apart here.

Key:
[1] = molecular target: T1, β-secretase cleavage of APP in membranes from 293 cells transfected with the Swedish variant of APP (Homo sapiens, UniProt P56817); assay: cell membrane (in situ) β-secretase cleavage of APP, 293SW cell membranes, 192SW immunoblot; assay type: biochemical
T1 construct: membranes from 293 cells transfected with the Swedish variant of APP (293SWE cells); endogenous in cells; host or cells: 293SW cells (human 293 cells stably transfected with Swedish APP); saponin-extracted P2 membrane pellet
From the text: Generation of β-secretase cleaved APP fragments from the endogenous full length APP protein was observed using the 192SW antibody (described above) in membranes from 293 cells transfected with the Swedish variant of APP (293SWE cells). APP fragments may be measured by immunoprecipitation or by immunoblotting. The latter technique is preferred for reasons of convenience.
A semiquantitative assay for the detecting in situ β-secretase cleavage of APP in membranes was developed used to directly identify β-secretase inhibitors. The membrane assay is useful as a primary screen or as a secondary assay to confirm inhibiting activity of potential inhibitors identified in the assays described above.
Cell membrane assays were run as follows. […]
For β-secretase inhibition assays, 10 μl of the test compound of interest at 5 times its desired final concentration, in 500 mM sodium acetate, pH 5.5, and 20% DMSO, was added to 40 μl of the extracted P2 suspension. […] Membranes were blocked in NCS-TBS (10% newborn calf serum, 150 mM sodium chloride, 50 mM Tris, pH 7.5), and analyzed using 192SW, 0.5 μg/ml in NCS-TBS, as primary antibody, horseradish peroxidase-linked anti-rabbit IgG (Amersham) diluted 1:3000 in NCS-TBS as secondary antibody, and ECL reagent (Amersham) as chemilumenescent developer. The 192SW-reactive bands identified by autoradiography were quantitated by densitometry.

β-secretase [2] = molecular target: T2, β-secretase (Homo sapiens, UniProt P56817); assay: β-secretase inhibitor assay: purified β-secretase, MBP-C125 SW substrate, ELISA
T2 sequence (P56817 46-501): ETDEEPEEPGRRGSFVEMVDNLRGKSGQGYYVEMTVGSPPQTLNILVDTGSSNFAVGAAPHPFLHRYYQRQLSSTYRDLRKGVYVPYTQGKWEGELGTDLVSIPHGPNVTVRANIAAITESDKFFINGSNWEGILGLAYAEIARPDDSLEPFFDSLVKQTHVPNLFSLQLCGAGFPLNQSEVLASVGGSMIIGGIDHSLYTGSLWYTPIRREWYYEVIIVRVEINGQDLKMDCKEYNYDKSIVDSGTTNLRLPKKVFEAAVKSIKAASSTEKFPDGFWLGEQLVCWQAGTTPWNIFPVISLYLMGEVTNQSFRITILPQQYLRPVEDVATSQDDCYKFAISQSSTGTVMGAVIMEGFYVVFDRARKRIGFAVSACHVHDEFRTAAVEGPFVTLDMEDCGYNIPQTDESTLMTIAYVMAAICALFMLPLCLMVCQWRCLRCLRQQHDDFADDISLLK

β-secretase [3] = molecular target: T2, β-secretase; assay: binding of substantially purified β-secretase activity to immobilized lectins; set-up: endogenous in cells; host or cells: human 293 cells or human brain; solubilized membrane extract purified by WGA, SP, Q, Con A and Superdex 200 chromatography; settings: for β-Secretase Binding: immobilized lectins
Protocol: Glycosylation of β-secretase has been investigated using various immobilized lectins, and ability of substantially purified β-secretase activity to bind to them was determined. […] A “−” sign signifies less than 20% binding, “+” between 24-40% binding, “++” between 50-75% binding, and “+++”>75% binding.

[4] = concentration of inhibitor giving 50% inhibition of control activity

Row | Molecule | β-Secretase Binding (β-secretase [3]) | IC50 (β-secretase [2]; [4]) | other results
1 | Nc1c(/N=N/c2ccc(-c3ccc(/N=N/c4cc(S(=O)(=O)O)c5ccccc5c4N)cc3)cc2)cc(S(=O)(=O)O)c2ccccc12 [Congo Red] |  |  | activity in the in situ assay [1]: much more potent than an inactive control compound; activity in the ELISA assay (β-secretase [2]; ELISA assay): much more potent than an inactive control compound
2 | [Cu+2] [Cu] |  | 2 mM | 
3 | [Zn+2] [Zn] |  | 3 mM | 
4 | CCCCC(NC(=O)C=[N+]=[N-])C(=O)OC (stereo not shown) [diazoacetylnorleucyl-methyl ester] |  |  | IC50 (β-secretase [2]): > 5 mM
5 | c1cnc2c(c1)ccc1cccnc12 [o-phenanthroline] |  | 7 mM | inhibition of β-secretase activity (β-secretase [2]; summary of Table 3): inhibits poorly
6 | m-phenanthroline |  | 7 mM | 
7 | lentil (LCA): immobilized lectin (protein) chain 1: TETTSFSITKFSPDQKNLIFQGDGYTTKGKLTLTKAVKSTVGRALYSTPIHIWDRDTGNVANFVTSFTFVIDAPSSYNVADEFTFFIAPVDTKPQTGGGYLGVFNSKEYDKTSQTVAVEFDTFYNAAWDPSNKERHIGIDVNSIKSVNTKSWNLQNGERANVVIAFNAATNVLTVTLTYP chain 2: VTSYTLNEVVPLKDVVPEWVRIGFSATTGAEFAAHEVHSWSFHSELGGTSSS | + (between 24-40% binding) |  | 

Second part, led by results:

Row | β-Secretase Binding (β-secretase [3]) | Molecule | IC50 (β-secretase [2]; [4]) | other results
8 | + + + | wheat germ (WGA): immobilized lectin |  | binding of β-secretase activity (β-secretase [3]): quantitatively
9 | + (between 24-40% binding) | wheat germ - succinylated (SWGA): immobilized lectin |  | 
10 | + (between 24-40% binding) | peanut (PNA): immobilized lectin (protein, UniProt P02872 24-273, looked up, immobilized, immobilized lectin) Galactose-binding lectin: AETVSFNFNSFSEGNPAINFQGDVTVLSNGNIQLTNLNKVNSVGRVLYAMPVRIWSSATGNVASFLTSFSFEMKDIKDYDPADGIIFFIAPEDTQIPAGSIGGGTLGVSDTKGAGHFVGVEFDTYSNSEYNDPPTDHVGIDVNSVDSVKTVPWNSVSGAVVKVTVIYDSSTKTLSVAVTNDNGDITTIAQVVDLKAKLPERVKFGFSASGSLGGRQIHLIRSWSFTSTLITTTRRSIDNNEKKIMNMASA |  | 
